For series [1] the following is noted: rcm bond, 12-membered ring.
The conditions of series [2]: from C=CCCC(=O)Nc1cc(NC(=O)OC)ccc1-c1cn(COCC[Si](C)(C)C)c([C@H](CC=C)NC(=O)OC(C)(C)C)n1; rcm bond; 13-membered ring; 1.5 h.
In series [3] the target is purified human Factor XIa (Homo sapiens (Human), UniProt P03951). As to the kind of experiment: Factor XIa enzyme inhibition assay (chromogenic substrate S-2366). The format is biochemical. On the procedure:
The effectiveness of compounds of the present invention as inhibitors of the coagulation Factors XIa, VIIa, IXa, Xa, XIIa, plasma kallikrein or thrombin, can be determined using a relevant purified serine protease, respectively, and an appropriate synthetic substrate. The rate of hydrolysis of the chromogenic or fluorogenic substrate by the relevant serine protease was measured both in the absence and presence of compounds of the present invention. Assays were conducted at room temperature or at 37° C. […] A decrease in the rate of absorbance or fluorescence change in the presence of inhibitor is indicative of enzyme inhibition. Such methods are known to one skilled in the art. The results of this assay are expressed as the inhibitory constant, Ki.
Values of Ki were determined by allowing the protease to react with the substrate in the presence of the inhibitor. Reactions were allowed to go for periods of 20-180 minutes (depending on the protease) and the velocities (rate of absorbance or fluorescence change versus time) were measured. The following relationships were used to calculate Ki values: (vo−vs)/vs=I/(Ki(1+S/Km)) for a competitive inhibitor with one binding site; or vs/vo=A+((B−A)/(1+((IC50/(I))^n))); and Ki=IC50/(1+S/Km) for a competitive inhibitor where: […]

[4] abbreviates: substrate S-2366, 50 mM HEPES pH 7.4.

Where a name gives a salt, the structure may show the parent alone. Read-outs that look alike come from different tables or passages of the source. Some results are limits rather than exact numbers.

Sequence of purified human Factor XIa (P03951 388-625): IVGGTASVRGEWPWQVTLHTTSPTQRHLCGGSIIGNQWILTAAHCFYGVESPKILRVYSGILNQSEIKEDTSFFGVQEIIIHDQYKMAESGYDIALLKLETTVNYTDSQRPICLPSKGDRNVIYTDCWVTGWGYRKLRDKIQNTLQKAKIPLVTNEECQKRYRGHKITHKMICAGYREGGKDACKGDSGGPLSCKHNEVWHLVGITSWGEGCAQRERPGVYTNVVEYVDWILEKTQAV
Sequence of purified human Factor XIa (P03951 19-387 partner): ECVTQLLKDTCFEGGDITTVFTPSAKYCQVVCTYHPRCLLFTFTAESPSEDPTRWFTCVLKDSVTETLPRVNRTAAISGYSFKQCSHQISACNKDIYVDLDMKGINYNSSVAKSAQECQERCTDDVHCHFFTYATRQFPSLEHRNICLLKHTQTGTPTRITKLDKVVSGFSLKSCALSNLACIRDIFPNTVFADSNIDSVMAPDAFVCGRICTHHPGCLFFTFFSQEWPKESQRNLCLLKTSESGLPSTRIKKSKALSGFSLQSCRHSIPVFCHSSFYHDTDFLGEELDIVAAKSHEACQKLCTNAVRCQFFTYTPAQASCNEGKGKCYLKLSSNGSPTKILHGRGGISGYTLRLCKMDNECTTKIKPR

On to `COC(=O)Nc1ccc2c(c1)N(C(=O)C(F)(F)F)[C@@H](C(=O)OC)CC=CC[C@H](NC(=O)OC(C)(C)C)c1nc-2cn1COCC[Si](C)(C)C`, for which the ring closure, isolated yield in series [1] (from C=CC[C@H](NC(=O)OC(C)(C)C)c1nc(-c2ccc(NC(=O)OC)cc2N(C(=O)C(F)(F)F)[C@H](CC=C)C(=O)OC)cn1COCC[Si](C)(C)C, Grubbs II (0.03 eq), DCE, 37.7 mM, 85.0 °C, 16.0 h) was 29%.
For the molecule `COC(=O)Nc1ccc2c(c1)NC(=O)C(C)/C=C/C[C@H](NC(=O)OC(C)(C)C)c1cc-2cnc1F` (stereo partly shown), the ring closure, isolated yield in series [1] (from C=CC[C@H](NC(=O)OC(C)(C)C)c1cc(-c2ccc(NC(=O)OC)cc2NC(=O)C(C)C=C)cnc1F, Grubbs II (0.4 eq), microwave, DCE, 17.3 mM, 120.0 °C) turned out to be 68%.
In turn, `COC(=O)Nc1ccc2c(c1)NC(=O)CC/C=C/C[C@H](NC(=O)OC(C)(C)C)c1nc-2cn1COCC[Si](C)(C)C` registered a ring closure, yield after HPLC in series [2] of 42%.
For the molecule `COC(=O)Nc1ccc2c(c1)NC(=O)[C@H](C)/C=C/C[C@H](NC(=O)OC(C)(C)C)c1nc-2cn1COCC[Si](C)(C)C`, the ring closure, isolated yield in series [1] (from C=CC[C@H](NC(=O)OC(C)(C)C)c1nc(-c2ccc(NC(=O)OC)cc2NC(=O)[C@H](C)C=C)cn1COCC[Si](C)(C)C, Grubbs II (0.4 eq)/pTsOH, DCM, 9.7 mM, 40.0 °C) was 41%.
In series [1] (from C=CC[C@H](NC(=O)OC(C)(C)C)c1nc(-c2ccc(NC(=O)OC)cc2N[C@H](CC=C)C(=O)OC)cn1COCC[Si](C)(C)C, Grubbs II (0.4 eq), microwave, DCE, 40.0 mM, 120.0 °C), `COC(=O)Nc1ccc2c(c1)N[C@@H](C(=O)OC)C/C=C/C[C@H](NC(=O)OC(C)(C)C)c1nc-2cn1COCC[Si](C)(C)C` yielded a ring closure, isolated yield of 23%.
The molecule `COC(=O)Nc1ccc2c(c1)N[C@@H](C(=O)OC)CCCC[C@H](N1CCC(c3cc(Cl)ccc3OC(F)F)OC1=O)c1nc-2c(C#N)[nH]1` (single isomer, unassigned) [Example 7] had an inhibitory constant (Ki) in series [3] (setting [4]) of 41.8 nM.
On the same count and under the same terms, next, `COC(=O)Nc1ccc2c(c1)NC(=O)[C@H](C)CCCC(N1CC(=O)N(c3c(C(F)(F)F)ccc(Cl)c3F)CC1=O)c1cc-2ccn1` (single isomer, unassigned) [Example 37, TFA salt]: below 5 nM.
The same measure, in the same setting: for `COC(=O)Nc1ccc2c(c1)NC(=O)CC/C=C/C[C@H](N1CCC(c3cc(Cl)ccn3)NC1=O)c1nc-2c[nH]1` (single isomer, unassigned) [Example 40] the value was 24.4 nM.
Still for that read-out and setting: next, `COC(=O)Nc1ccc2c(c1)NC(=O)[C@H](C)CCC[C@H](N1CCC(c3nccc(Cl)c3F)NC1=O)c1nc-2c[nH]1` (single isomer, unassigned) [Example 58]: below 5 nM.
Regarding `COC(=O)Nc1ccc2c(c1)N[C@@H](C(=O)OC)CCCC[C@H](N1CCC(c3cccc(Cl)c3)OC1=O)c1nc-2c(C#N)[nH]1` (single isomer, unassigned) [Example 79], in series [3] (setting [4]), the affinity corresponds to a Ki of 13.3 nM.
With `COC(=O)Nc1ccc2c(c1)NC(=O)CC/C=C/C[C@H](N1CCC(C)(c3c(F)ccc(Cl)c3F)OC1=O)c1nc-2c(Cl)[nH]1` (single isomer, unassigned) [Example 99], the inhibition constant Ki in series [3] (setting [4]) came out at 1930 nM.
Same read-out and setting: for `COC(=O)Nc1ccc2c(c1)NC(=O)[C@H](C)CCC[C@H](N1CCC(c3c(C(F)(F)F)ccc(Cl)c3F)OC1=O)c1cc-2ccn1` (single isomer, unassigned) [Example 133] the value was 69.3 nM; for `COC(=O)Nc1ccc2c(c1)NC(=O)CCCC[C@H](N1CCC(c3cccc(Cl)c3)CC1=O)c1nc-2c[nH]1` (single isomer, unassigned) [Example 147], 9.48 nM.
On to `COC(=O)Nc1ccc2c(c1)NC(=O)[C@H](C)CCC[C@H](N1CCC(c3cccc(Cl)c3)CC1=O)c1cc-2ccn1` (single isomer, unassigned) [Example 152], for which the Ki in series [3] (setting [4]) is below 5 nM.
The molecule `COC(=O)Nc1ccc2c(c1)NC(=O)C(C)C=CC[C@H](NC(=O)OC(C)(C)C)c1cc-2ccn1` (single isomer, unassigned; diastereomer a) yielded a ring closure, isolated yield in series [1] (from C=CC[C@H](NC(=O)OC(C)(C)C)c1cc(-c2ccc(NC(=O)OC)cc2NC(=O)C(C)C=C)ccn1, Grubbs II (0.1 eq)/pTsOH, DCM, 4.0 mM, 40.0 °C) of 25%.
Turning to `COC(=O)Nc1ccc2c(c1)NC(=O)CCCC[C@H](N1CCC(c3cccc(Cl)c3)OC1=O)c1nc-2c[nH]1` (stereo partly drawn) [Example 4, Methyl ((14S)-14-(6-(3-chlorophenyl)-2-oxo-1,3-oxazinan-3-yl)-9-oxo-8,16,18-triazatricyclo[13.2.1.0^2,7]octadeca-1(17),2,4,6,15(18)-pentaen-5-yl)carbamate], affinity in series [3] (setting [4]) was put at a Ki of 3400 nM.
The same measure, in the same setting: next, `COC(=O)Nc1ccc2c(c1)N[C@@H](C(=O)OC)CCCC[C@H](N1CCC(c3cccc(Cl)c3)OC1=O)c1nc-2c[nH]1` (stereo partly drawn) [Example 5, Methyl (9R,14S)-14-(6-(3-chlorophenyl)-2-oxo-1,3-oxazinan-3-yl)-5-((methoxycarbonyl)amino)-8,16,18-triazatricyclo[13.2.1.0^2,7]octadeca-1(17),2,4,6,15(18)-pentaene-9-carboxylate]: 12.2 nM; `COC(=O)Nc1ccc2c(c1)NC(=O)C(C)CCC[C@H](N1CC[C@H](c3c(F)ccc(Cl)c3F)OC1=O)c1cc-2cnn1` (stereo partly drawn) [Example 13, Methyl N-[(14S)-14-[(6R)-6-(3-chloro-2,6-difluorophenyl)-2-oxo-1,3-oxazinan-3-yl]-10-methyl-9-oxo-8,16,17-triazatricyclo[13.3.1.0^2,7]nonadeca-1(19),2(7),3,5,15,17-hexaen-5-yl]carbamate]: below 5 nM; `COC(=O)Nc1ccc2c(c1)NC(=O)[C@H](C)CCC[C@H](N1CCC(c3c(Cl)ccc(Cl)c3F)NC1=O)c1nc-2c[nH]1` (stereo partly drawn) [Example 18, Methyl N-[(10R,14S)-14-[4-(3,6-dichloro-2-fluorophenyl)-2-oxo-1,3-diazinan-1-yl]-10-methyl-9-oxo-8,16,18-triazatricyclo[13.2.1.0^2,7]octadeca-1(17),2,4,6,15(18)-pentaen-5-yl]carbamate]: 6.83 nM.
The same measure, in the same setting: for `COC(=O)Nc1ccc2c(c1)NC(=O)[C@H](C)CCC[C@H](N1CCN(c3cccc(Cl)c3F)CC1=O)c1cc-2ccn1` [Example 20, Methyl N-[(10R,14S)-14-[4-(3-chloro-2-fluorophenyl)-2-oxopiperazin-1-yl]-10-methyl-9-oxo-8,16-diazatricyclo[13.3.1.0^2,7]nonadeca-1(19),2(7),3,5,15,17-hexaen-5-yl]carbamate] the value was 7.46 nM; for `C[C@@H]1CCC[C@H](N2CC[C@H](c3c(F)ccc(Cl)c3F)OC2=O)c2cc(ccn2)-c2cc(C(=O)O)ccc2NC1=O` [Example 26, (10R,14S)-14-[(6R)-6-(3-chloro-2,6-difluorophenyl)-2-oxo-1,3-oxazinan-3-yl]-10-methyl-9-oxo-8,16-diazatricyclo[13.3.1.0^2,7]nonadeca-1(19),2,4,6,15,17-hexaene-4-carboxylic acid, TFA salt], below 5 nM.
Turning to `COC(=O)Nc1ccc2c(c1)NC(=O)CC/C=C/C[C@H](N1CCC(C)(c3c(F)ccc(Cl)c3F)OC1=O)c1nc-2c(Cl)[nH]1` (stereo partly drawn) [Example 32, Methyl N-[(12E,15S)-18-chloro-15-[6-(3-chloro-2,6-difluorophenyl)-6-methyl-2-oxo-1,3-oxazinan-3-yl]-9-oxo-8,17,19-triazatricyclo[14.2.1.0^2,7]nonadeca-1(18),2,4,6,12,16(19)-hexaen-5-yl]carbamate, TFA salt], the Ki in series [3] (substrate S-2366, 50 mM HEPES pH 7.4, TFA salt) worked out at 2460 nM.
Turning to `COC(=O)Nc1ccc2c(c1)NC(=O)[C@H](C)CCC[C@H](N1CC[C@@H](c3c(F)ccc(Cl)c3F)NC1=O)c1nc-2c[nH]1` [Example 70], in series [3] (setting [4]), the Ki is below 5 nM.
The same measure, in the same setting: next, `COC(=O)Nc1ccc2c(c1)NC(=O)[C@H](C)CCC[C@H](N1CC[C@@H](c3nccc(Cl)c3F)N(C)C1=O)c1nc-2c[nH]1` [Example 71]: 330 nM; `COC(=O)Nc1ccc2c(c1)NC(=O)[C@H](C)CCC[C@H](N1CC[C@H](c3nccc(Cl)c3F)N(C)C1=O)c1nc-2c[nH]1` [Example 72]: 28.8 nM.
With `COC(=O)Nc1ccc2c(c1)NC(=O)CC/C=C/C[C@H](N1CC[C@H](c3cc(Cl)ccc3OC(F)F)OC1=O)c1nc-2c[nH]1` [Example 77], the Ki in series [3] (setting [4]) worked out at 7.46 nM.
Same read-out and setting: next, `COC(=O)Nc1ccc2c(c1)NC(=O)[C@H](C)CCC[C@H](N1CC[C@@H](c3c(F)ccc(Cl)c3F)OC1=O)c1cc-2ccn1` [Example 100]: below 5 nM.
Same read-out and setting: for `COC(=O)Nc1ccc2c(c1)NC(=O)[C@@H](C)CCC[C@H](N1CC[C@@H](c3c(F)ccc(Cl)c3F)OC1=O)c1ccnc-2c1` [Example 119] the value was 9.6 nM.

By Ki is commonly meant the dissociation constant of the complex between target and ligand, obtained from inhibition or displacement.

Values taken from patent US8901115B2, “Cyclic P1 linkers as factor XIa inhibitors” (Bristol-Myers Squibb Company, priority 2011, dated 2014).
